The NIST ThermoML archive (doi:10.1021/je1012235)
± gives the expanded uncertainty stated by the source.

Conditions: 308.15 K; 101.33 kPa; Liquid

Compound | viscosity [mPa·s]
CCCCCC/C=C\CCCCCCCC(=O)OC [methyl (Z)-9-hexadecenoate] | 2.943 ± 0.041
CCCCCCCC/C=C\CCCCCCCCCCCC(=O)OC [methyl (Z)-13-docosenoate] | 6.917 ± 0.09

Same assay, conditions: 308.15 K; 101.33 kPa; Liquid; Vibrating tube method

Compound | mass density [kg/m3]
CCCCC/C=C\C/C=C\CCCCCCCC(=O)OCC [ethyl linoleate] | 871.5 ± 1
CC/C=C\C/C=C\C/C=C\CCCCCCCC(=O)OCC [ethyl 9,12,15-octadecatrienoate] | 882 ± 1
CCCCCC/C=C\CCCCCCCC(=O)OC [methyl (Z)-9-hexadecenoate] | 857.6 ± 1

The next lines start with the values.

mass density [kg/m3] | Compound
890.7 ± 1 | CC/C=C\C/C=C\C/C=C\CCCCCCCC(=O)OC [methyl (Z,Z,Z)-9,12,15-octadecatrienoate]
863 ± 1 | CCCCCCCC/C=C\CCCCCCCCCC(=O)OC [methyl cis-11-eicosenoate]
860 ± 1 | CCCCCCCC/C=C\CCCCCCCCCCCC(=O)OC [methyl (Z)-13-docosenoate]

Same assay, conditions: 313.15 K; 101.33 kPa; Liquid

Compound | viscosity [mPa·s]
CCCCC/C=C\C/C=C\CCCCCCCC(=O)OCC [ethyl linoleate] | 3.406 ± 0.046
CC/C=C\C/C=C\C/C=C\CCCCCCCC(=O)OCC [ethyl 9,12,15-octadecatrienoate] | 2.975 ± 0.041
CCCCCC/C=C\CCCCCCCC(=O)OC [methyl (Z)-9-hexadecenoate] | 2.616 ± 0.037

Other lines, results leading:

viscosity [mPa·s] | Compound
2.925 ± 0.04 | CC/C=C\C/C=C\C/C=C\CCCCCCCC(=O)OC [methyl (Z,Z,Z)-9,12,15-octadecatrienoate]
5.08 ± 0.08 | CCCCCCCC/C=C\CCCCCCCCCC(=O)OC [methyl cis-11-eicosenoate]
5.958 ± 0.078 | CCCCCCCC/C=C\CCCCCCCCCCCC(=O)OC [methyl (Z)-13-docosenoate]

Same assay, conditions: 313.15 K; 101.33 kPa; Liquid; Vibrating tube method

Compound | mass density [kg/m3]
CCCCC/C=C\C/C=C\CCCCCCCC(=O)OCC [ethyl linoleate] | 867.8 ± 1
CC/C=C\C/C=C\C/C=C\CCCCCCCC(=O)OCC [ethyl 9,12,15-octadecatrienoate] | 878.3 ± 1
CCCCCC/C=C\CCCCCCCC(=O)OC [methyl (Z)-9-hexadecenoate] | 853.8 ± 1

Next, values leading:

mass density [kg/m3] | Compound
887 ± 1 | CC/C=C\C/C=C\C/C=C\CCCCCCCC(=O)OC [methyl (Z,Z,Z)-9,12,15-octadecatrienoate]
859.5 ± 1.2 | CCCCCCCC/C=C\CCCCCCCCCC(=O)OC [methyl cis-11-eicosenoate]
856.5 ± 1 | CCCCCCCC/C=C\CCCCCCCCCCCC(=O)OC [methyl (Z)-13-docosenoate]

Same assay, conditions: 318.15 K; 101.33 kPa; Liquid

Compound | viscosity [mPa·s]
CCCCCCCCCCCCCCCCCCCC(=O)OCC [ethyl eicosanoate] | 5.657 ± 0.089
CCCCC/C=C\C/C=C\CCCCCCCC(=O)OCC [ethyl linoleate] | 3.161 ± 0.043
CC/C=C\C/C=C\C/C=C\CCCCCCCC(=O)OCC [ethyl 9,12,15-octadecatrienoate] | 2.728 ± 0.038
CCCCCC/C=C\CCCCCCCC(=O)OC [methyl (Z)-9-hexadecenoate] | 2.422 ± 0.034

Other lines, results leading:

viscosity [mPa·s] | Compound
2.675 ± 0.037 | CC/C=C\C/C=C\C/C=C\CCCCCCCC(=O)OC [methyl (Z,Z,Z)-9,12,15-octadecatrienoate]
4.529 ± 0.072 | CCCCCCCC/C=C\CCCCCCCCCC(=O)OC [methyl cis-11-eicosenoate]
5.402 ± 0.071 | CCCCCCCC/C=C\CCCCCCCCCCCC(=O)OC [methyl (Z)-13-docosenoate]

Same assay, conditions: 318.15 K; 101.33 kPa; Liquid; Vibrating tube method

Compound | mass density [kg/m3]
CCCCCCCCCCCCCCCCCCCC(=O)OCC [ethyl eicosanoate] | 841.2 ± 1.2
CCCCC/C=C\C/C=C\CCCCCCCC(=O)OCC [ethyl linoleate] | 864.2 ± 1
CC/C=C\C/C=C\C/C=C\CCCCCCCC(=O)OCC [ethyl 9,12,15-octadecatrienoate] | 874.6 ± 1
CCCCCC/C=C\CCCCCCCC(=O)OC [methyl (Z)-9-hexadecenoate] | 850 ± 1

Second part, the compound after the results:

mass density [kg/m3] | Compound
883.3 ± 1 | CC/C=C\C/C=C\C/C=C\CCCCCCCC(=O)OC [methyl (Z,Z,Z)-9,12,15-octadecatrienoate]
855.9 ± 1.2 | CCCCCCCC/C=C\CCCCCCCCCC(=O)OC [methyl cis-11-eicosenoate]
853 ± 1 | CCCCCCCC/C=C\CCCCCCCCCCCC(=O)OC [methyl (Z)-13-docosenoate]

Same assay, conditions: 323.15 K; 101.33 kPa; Liquid

Compound | viscosity [mPa·s]
CCCCCCCCCCCCCCCCCCCC(=O)OCC [ethyl eicosanoate] | 4.973 ± 0.079
CCCCC/C=C\C/C=C\CCCCCCCC(=O)OCC [ethyl linoleate] | 2.829 ± 0.039
CC/C=C\C/C=C\C/C=C\CCCCCCCC(=O)OCC [ethyl 9,12,15-octadecatrienoate] | 2.511 ± 0.035
CCCCCC/C=C\CCCCCCCC(=O)OC [methyl (Z)-9-hexadecenoate] | 2.175 ± 0.031

Further lines, results first:

viscosity [mPa·s] | Compound
2.472 ± 0.035 | CC/C=C\C/C=C\C/C=C\CCCCCCCC(=O)OC [methyl (Z,Z,Z)-9,12,15-octadecatrienoate]
4.832 ± 0.061 | CCCCCCCCCCCCCCCCCCCC(=O)OC [methyl eicosanoate]
4.062 ± 0.065 | CCCCCCCC/C=C\CCCCCCCCCC(=O)OC [methyl cis-11-eicosenoate]
4.76 ± 0.063 | CCCCCCCC/C=C\CCCCCCCCCCCC(=O)OC [methyl (Z)-13-docosenoate]

Same assay, conditions: 323.15 K; 101.33 kPa; Liquid; Vibrating tube method

Compound | mass density [kg/m3]
CCCCCCCCCCCCCCCCCCCC(=O)OCC [ethyl eicosanoate] | 837.7 ± 1.2
CCCCC/C=C\C/C=C\CCCCCCCC(=O)OCC [ethyl linoleate] | 860.6 ± 1
CC/C=C\C/C=C\C/C=C\CCCCCCCC(=O)OCC [ethyl 9,12,15-octadecatrienoate] | 870.9 ± 1
CCCCCC/C=C\CCCCCCCC(=O)OC [methyl (Z)-9-hexadecenoate] | 846.3 ± 1

Results, then the compound that gave them:

mass density [kg/m3] | Compound
879.6 ± 1 | CC/C=C\C/C=C\C/C=C\CCCCCCCC(=O)OC [methyl (Z,Z,Z)-9,12,15-octadecatrienoate]
842.3 ± 1 | CCCCCCCCCCCCCCCCCCCC(=O)OC [methyl eicosanoate]
852.3 ± 1.2 | CCCCCCCC/C=C\CCCCCCCCCC(=O)OC [methyl cis-11-eicosenoate]
849.4 ± 1 | CCCCCCCC/C=C\CCCCCCCCCCCC(=O)OC [methyl (Z)-13-docosenoate]

Same assay, conditions: 328.15 K; 101.33 kPa; Liquid

Compound | viscosity [mPa·s]
CCCCCCCCCCCCCCCCCCCC(=O)OCC [ethyl eicosanoate] | 4.507 ± 0.072
CCCCC/C=C\C/C=C\CCCCCCCC(=O)OCC [ethyl linoleate] | 2.641 ± 0.037
CC/C=C\C/C=C\C/C=C\CCCCCCCC(=O)OCC [ethyl 9,12,15-octadecatrienoate] | 2.32 ± 0.033
CCCCCC/C=C\CCCCCCCC(=O)OC [methyl (Z)-9-hexadecenoate] | 2.03 ± 0.029

Further lines, results first:

viscosity [mPa·s] | Compound
2.303 ± 0.033 | CC/C=C\C/C=C\C/C=C\CCCCCCCC(=O)OC [methyl (Z,Z,Z)-9,12,15-octadecatrienoate]
4.323 ± 0.055 | CCCCCCCCCCCCCCCCCCCC(=O)OC [methyl eicosanoate]
3.665 ± 0.059 | CCCCCCCC/C=C\CCCCCCCCCC(=O)OC [methyl cis-11-eicosenoate]
4.331 ± 0.058 | CCCCCCCC/C=C\CCCCCCCCCCCC(=O)OC [methyl (Z)-13-docosenoate]

Same assay, conditions: 328.15 K; 101.33 kPa; Liquid; Vibrating tube method

Compound | mass density [kg/m3]
CCCCCCCCCCCCCCCCCCCC(=O)OCC [ethyl eicosanoate] | 834.1 ± 1.2
CCCCC/C=C\C/C=C\CCCCCCCC(=O)OCC [ethyl linoleate] | 856.9 ± 1
CC/C=C\C/C=C\C/C=C\CCCCCCCC(=O)OCC [ethyl 9,12,15-octadecatrienoate] | 867.2 ± 1
CCCCCC/C=C\CCCCCCCC(=O)OC [methyl (Z)-9-hexadecenoate] | 842.5 ± 1

Results, then the compound that gave them:

mass density [kg/m3] | Compound
876 ± 1 | CC/C=C\C/C=C\C/C=C\CCCCCCCC(=O)OC [methyl (Z,Z,Z)-9,12,15-octadecatrienoate]
838.7 ± 1 | CCCCCCCCCCCCCCCCCCCC(=O)OC [methyl eicosanoate]
848.8 ± 1.2 | CCCCCCCC/C=C\CCCCCCCCCC(=O)OC [methyl cis-11-eicosenoate]
845.9 ± 1 | CCCCCCCC/C=C\CCCCCCCCCCCC(=O)OC [methyl (Z)-13-docosenoate]

Same assay, conditions: 333.15 K; 101.33 kPa; Liquid

Compound | viscosity [mPa·s]
CCCCCCCCCCCCCCCCCCCC(=O)OCC [ethyl eicosanoate] | 4.058 ± 0.065
CCCCC/C=C\C/C=C\CCCCCCCC(=O)OCC [ethyl linoleate] | 2.429 ± 0.034
CC/C=C\C/C=C\C/C=C\CCCCCCCC(=O)OCC [ethyl 9,12,15-octadecatrienoate] | 2.151 ± 0.031
CCCCCC/C=C\CCCCCCCC(=O)OC [methyl (Z)-9-hexadecenoate] | 1.87 ± 0.027

More lines, now with the values ahead:

viscosity [mPa·s] | Compound
2.123 ± 0.03 | CC/C=C\C/C=C\C/C=C\CCCCCCCC(=O)OC [methyl (Z,Z,Z)-9,12,15-octadecatrienoate]
3.889 ± 0.05 | CCCCCCCCCCCCCCCCCCCC(=O)OC [methyl eicosanoate]
4.749 ± 0.063 | CCCCCCCCCCCCCCCCCCCCCC(=O)OC [methyl docosanoate]
3.323 ± 0.054 | CCCCCCCC/C=C\CCCCCCCCCC(=O)OC [methyl cis-11-eicosenoate]
3.91 ± 0.053 | CCCCCCCC/C=C\CCCCCCCCCCCC(=O)OC [methyl (Z)-13-docosenoate]

Same assay, conditions: 333.15 K; 101.33 kPa; Liquid; Vibrating tube method

Compound | mass density [kg/m3]
CC/C=C\C/C=C\C/C=C\CCCCCCCC(=O)OC [methyl (Z,Z,Z)-9,12,15-octadecatrienoate] | 872.3 ± 1
CCCCCCCCCCCCCCCCCCCC(=O)OC [methyl eicosanoate] | 834.9 ± 1
